Source: ChEMBL document CHEMBL5050844 (2019)

Legend:
Format in all cases: functional, T cell line
[1] = Induction of anti-CD3/CD28 antibodies-stimulated human T cell activation at 4 uM assessed fold increase in IL-2 secretion measured by ELISA assay
[2] = Induction of anti-CD3/CD28 antibodies-stimulated human T cell activation at 1 uM assessed fold increase in IL-2 secretion measured by ELISA assay
[3] = Induction of anti-CD3/CD28 antibodies-stimulated human T cell activation at 0.3 uM assessed fold increase in IL-2 secretion measured by ELISA assay
[4] = Induction of anti-CD3 antibodies-stimulated human T cell activation at 8 uM assessed fold increase in IL-2 secretion measured by ELISA assay; further: reference of the scale not given here
[5] = Induction of anti-CD3 antibodies-stimulated human T cell activation at 1 uM assessed fold increase in IL-2 secretion measured by ELISA assay; further: reference of the scale not given here
[6] = Induction of anti-CD3/CD28 antibodies-stimulated human T cell activation at 4 uM assessed fold increase in CD25 expression measured by ELISA assay
[7] = Induction of anti-CD3/CD28 antibodies-stimulated human T cell activation at 1 uM assessed fold increase in CD25 expression measured by ELISA assay
[8] = Induction of anti-CD3/CD28 antibodies-stimulated human T cell activation at 0.3 uM assessed fold increase in CD25 expression measured by ELISA assay
[9] = Induction of anti-CD3 antibodies-stimulated human T cell activation at 8 uM assessed fold increase in CD25 expression measured by ELISA assay; further: reference of the scale not given here
[10] = Induction of anti-CD3 antibodies-stimulated human T cell activation at 1 uM assessed fold increase in CD25 expression measured by ELISA assay; further: reference of the scale not given here

Structure (SMILES)	fold change (FC) [1]	fold change (FC) [2]	fold change (FC) [3]	fold change (FC) [4]	fold change (FC) [5]	fold change (FC) [6]	fold change (FC) [7]	fold change (FC) [8]	fold change (FC) [9]	fold change (FC) [10]
C[C@H](Cc1nncn1C)c1cccc(N2Cc3c(Br)cccc3C2=O)c1	>=7.5	5	2.51	>=0.201	>=0.201	1.51	1.31	1.01	0.801	0.801
C[C@H](Cc1nncn1C)c1cccc(NC(=O)c2coc(C(F)(F)F)n2)c1	1.01	1.01	<=1	0.101	0.051	1.01	1.01	1.01	0.801	0.601
C[C@H](Sc1nncn1C)c1ccc(F)c(NC(=O)c2cccc(C(F)(F)F)n2)c1	2.51	1.01	1.01	0.051	<=0.05	1.01	1.01	<=1	<=0.6	<=0.6
CC(Cc1nncn1C)c1cc(C2CCC2)cc(N2Cc3c(cccc3C(F)(F)F)C2=O)c1 (stereo not given)	1.01	1.01	1.01	0.051	0.051	1.01	1.01	1.01	0.801	0.601
Cc1ccnn1CC(C)c1cccc(NC(=O)c2cccc(C(F)(F)F)n2)c1 (stereo not given)	1.01	<=1	<=1	0.051	0.051	1.51	1.31	1.51	<=0.6	<=0.6
C[C@H](Cc1nncn1C)c1cccc(NC(=O)c2cccc(C(F)(F)CO)n2)c1	<=1	<=1	<=1	0.051	<=0.05	>=1.76	1.31	1.01	<=0.6	<=0.6
Cn1cnnc1[C@@H]1C[C@@H]1c1cccc(N2Cc3c(cc(C#N)cc3C(F)(F)F)C2=O)c1	2.51	1.01	1.01	0.101	<=0.05	1.01	1.01	1.01	0.801	0.601
Cc1cc(C(=O)Nc2cccc([C@H](C)Cc3nncs3)c2)nc(C2CC2)n1	5	2.51	1.01	>=0.201	0.101	1.01	1.01	1.01	0.801	0.601
Cc1cccc2nc(C(=O)Nc3cccc([C@H](C)Sc4nncn4C)c3)ccc12	>=7.5	5	2.51	0.101	<=0.05	1.01	1.01	1.01	0.801	0.801
COc1cccc(C(=O)Nc2cccc([C@H](C)Sc3nncn3C)c2)n1	2.51	1.01	1.01	0.151	0.101	1.31	<=1	<=1	0.601	<=0.6
Cc1cnnn1C[C@@H](C)c1cccc(NC(=O)c2cccc(C(F)(F)F)n2)c1	2.51	1.01	1.01	0.151	0.051	1.01	1.01	<=1	0.801	0.601
C[C@H](Cc1nncn1C)c1cc(OC2COC2)nc(N2Cc3c(cccc3C(F)(F)F)C2=O)c1	1.01	1.01	1.01	>=0.201	0.101	1.31	1.01	1.01	>=1.001	0.601
Cn1cnnc1C(F)(F)[C@@](C)(F)c1cccc(N2Cc3c(cc(CN4CC[C@H](F)C4)cc3C(F)(F)F)C2=O)c1	1.01	<=1	<=1	0.051	0.051	1.01	<=1	<=1	0.801	0.601
COc1cc(C(=O)Nc2cccc([C@H](C)Sc3nncn3C)c2)nc(C(F)(F)F)c1	5	2.51	2.51	>=0.201	0.051	>=1.76	1.51	1.01	0.801	0.801
Cc1cc(C)nc(C(=O)Nc2cccc([C@H](C)Sc3nncn3C)c2)c1	>=7.5	5	2.51	<=0.05	<=0.05	1.01	1.01	1.01	0.801	<=0.6
Cn1cnnc1C(F)(F)[C@](C)(F)c1cccc(NC(=O)c2nc3c(C(F)(F)F)cccc3[nH]2)c1	2.51	1.01	1.01	0.151	0.051	1.01	1.01	1.01	0.601	0.601
C[C@H](Sc1nncn1C)c1cccc(NC(=O)c2cncc(C(F)(F)F)n2)c1	1.01	1.01	<=1	<=0.05	<=0.05	1.01	1.01	<=1	0.601	<=0.6
